Experiments:
[1] = test system: adult, cycling rat; test: Embryo implantation in the cycling rat after subcutaneous treatment; type: in vivo; conditions: 20 mg/kg s.c. once daily d1-d8, mating d7, uteri checked d16, female Wistar rats, 5 animals/group; vehicle 10 ± 4
Procedure: A total of 15 sexually mature female Wistar rats with a body weight of 200-220 g and a 4-day cycle were used. The animals were divided in one control group (group 1) and two treatment groups (group 2-3) consisting of 5 animals/group, respectively.
Starting in metestrus (d1) animals were treated for eight days (d1-d8), once daily, subcutaneously with the test compounds (treatment groups) or vehicle (control group), respectively. At day 7, at proestrus, animals were mated. The success of mating was checked by the presence of sperms in the vagina at d8. At d16 animals were sacrificed. Uteri were removed and checked for the presence of implantation sides. In each animal the number of implantation sides were determined.
Control group 1 received vehicle alone [(ethanol/arachisoil, 1+9 (v/v)].
Group 2 received 20 mg/kg FF-MAS, prepared in an ethanol/arachisoil vehicle.
Group 2 received 20 mg/kg FF-MAS-succinate, prepared in an ethanol/arachisoil vehicle.

[2] = test system: mouse oocytes; conditions: added to the culture medium; Hegele-Hartung et al. 1998; cited from earlier work
[3] = test system: mouse oocytes; test: Implantation rate after IVF: mouse oocyte cultivation with FF-MAS, in vitro-fertilization, tubal retransfer to foster mothers; type: cell-based
Procedure: Oocytes are obtained by puncture using a fine needle from the ovaries of mice primed with PMSG (pregnant mare serum gonadotrophin). The oocytes are cultivated for approx. 20 hours in a defined hypoxanthine-containing culture medium (Hx medium, see above) with FF-MAS (10 μM) (37° C.). The control oocytes are cultivated in defined culture medium without FF-MAS for the same period of time. Both the FF-MAS-oocytes and the control oocytes have begun meiosis maturation at the end of the culture period. All oocytes punctured on one day (from various mice) are pooled and distributed over the two study groups.
The oocytes cultivated in the mouse oocyte assay are further processed in this experiment. They are washed briefly 3× in a defined medium not containing FF-MAS and subsequently transferred into an IVF medium not containing FF-MAS. Then a defined number of capacitated sperms (obtained from the epididymides of a male mouse) is added and the oocytes are incubated with the sperms for approx. 4 hours in an incubator at 37° C. Following incubation the number of inseminated oocytes is counted.
1 day before the retransfer female recipient mice (foster mothers) in pre-estrus are mated with vasectomized males in order to trigger pseudogestation. One day later a vaginal check is performed. Animals with positive, sperm-free vaginal prop (successful mating) enter the study. This day is day 0 of gestation (=day 0 after the sterile copulation). Approx 10-15 inseminated oocytes are transferred into one tube (right) to the foster mothers on day 0 after the sterile copulation under anesthetization. The contralateral tube remains unused (check for pseudogestation). Only inseminated oocytes from the IVF experiment are used.
Retransfer is repeated until approx. 20 evaluable litters (with viable fetuses) have been obtained in all study groups (10 μM FF-MAS and one untreated control group).
The foster mothers are killed on day 17 of gestation. Uteri are removed. The number of viable and dead fetuses, the number of foster mothers, the number of pregnant foster mothers and the number of pregnant foster mothers with viable fetuses and with total fetal death, respectively, are counted.

[4] = test system: human oocytes; conditions: Grøndahl et al. 1999; cited from earlier work

Row | SMILES | Number of implantation sides [x ± sd] d16 [1] | fertilization rate [2] | Number of pregnant foster mothers [n] ([3]; 10 μM FF-MAS in culture medium, 69 foster mothers, control 43 of 153) | Number of pregnant foster mothers [%] ([3]; 10 μM FF-MAS in culture medium, % of foster mothers, control 28) | Number of pregnant foster mothers with viable fetuses [%] ([3]; 10 μM FF-MAS in culture medium, % of pregnant foster mothers, control 47) | Numbers of pregnant foster mothers with total fetal death [%] ([3]; 10 μM FF-MAS in culture medium, % of pregnant foster mothers, control 54) | Number of pregnant foster mothers with viable fetuses [n] ([3]; 10 μM FF-MAS in culture medium, control 20) | Numbers of pregnant foster mothers with total fetal death [n] ([3]; 10 μM FF-MAS in culture medium, control 23) | Number of viable fetuses [n] ([3]; 10 μM FF-MAS in oocyte culture medium approx. 20 h, IVF, retransfer, foster mothers killed day 17 of gestation, 69 foster mothers, control 45 of 153) | nuclear and cytoplasmic maturation [4]
1 | CC(C)=CCC[C@@H](C)[C@H]1CC=C2C3=C(CC[C@@]21C)[C@@]1(C)CC[C@H](O)C(C)(C)[C@@H]1CC3 [FF-MAS, 4,4-dimethyl-5a-cholesta-8,14,24-triene-3β-ol] | 15 ± 3 | increase the fertilization rate | 27 n | 40% | 78% | 22% | 21 n | 6 n | 42 n | improvement in nuclear and cytoplasmic maturation
2 | CC(C)=CCCC(C)C1CC=C2C3=C(CCC21C)C1(C)CCC(OC(=O)CCC(=O)O)C(C)(C)C1CC3 (centres unmarked) [FF-MAS-succinate] | 12 ± 2 | – | – | – | – | – | – | – | – | –
